According to ChEMBL document CHEMBL5131566, “Small-Molecule Thioesters as SARS-CoV-2 Main Protease Inhibitors: Enzyme Inhibition, Structure-Activity Relationships, Antiviral Activity, and X-ray Structure Determination” (J Med Chem, 2022):

Experiments:
[1] = system: Calu-3; assay: Cytotoxicity against human Calu-3 cells assessed as reduction in cell […] at 10 uM incubated for 24 hrs by cell titer glo luminescent assay; format: toxicity, cell-based; settings: calu-3, 24 h
[2] = target: T1, Replicase polyprotein 1ab (Severe acute respiratory syndrome coronavirus 2, UniProt P0DTD1); assay: Inhibition of recombinant his tagged SARS CoV-2 main protease expressed in Escherichia coli BL21 assessed as inhibition constant using Boc-Abu-Tle-Leu-Gln-AMC37 as fluorogenic substrate pre-incubated for 5 mins followed by substrate addition measured after 60 mins by FRET based assay
[3] = system: Vero 76; assay: Cytotoxicity against African green monkey Vero 76 cells assessed as reduction in cell […] at 10 uM incubated for 24 hrs by cell titer glo luminescent assay; format: toxicity, cell-based; settings: chlorocebus sabaeus, vero 76, 24 h
[4] = system: SARS-CoV-2; assay: microbe, parasite or virus in culture; settings: Severe acute respiratory syndrome coronavirus 2, Calu-3
[5] = target: T1, Replicase polyprotein 1ab; assay: Inhibition of recombinant his tagged SARS CoV-2 main protease expressed in Escherichia coli BL21 using Boc-Abu-Tle-Leu-Gln-AMC37 as fluorogenic substrate pre-incubated for 5 mins followed by substrate addition measured after 60 mins by FRET based assay
[6] = target: Replicase polyprotein 1ab (Severe acute respiratory syndrome coronavirus 2) (UniProt P0DTD1); assay: Time dependent inhibition of recombinant his tagged SARS CoV-2 main protease expressed in Escherichia coli BL21 assessed as ratio of Kinact/Ki using MCA-AVLQSGFR-K(DNP)-K-NH2 as substrate pre-incubated for 5 mins followed by substrate addition measured after 60 mins by FRET based assay
[7] = Inhibition of recombinant SARS CoV-1 main protease expressed using MCA-AVLQSGFR-K(DNP)-K-NH2 as substrate incubated for 2 hrs by FRET based assay; parameters: species or system Severe acute respiratory syndrome-related coronavirus
[8] = system: Severe acute respiratory syndrome-related coronavirus; assay: Inhibition of recombinant SARS CoV-1 main protease expressed using MCA-AVLQSGFR-K(DNP)-K-NH2 as substrate at 10 uM incubated for 2 hrs by FRET based assay
[9] = Inhibition of MERS-CoV -Mpro using Ac-Abu-Tle-Leu-Gln-ACC as substrate incubated for 2 hrs by FRET based assay; parameters: species or system Middle East respiratory syndrome-related coronavirus
[10] = target: Replicase polyprotein 1ab (Severe acute respiratory syndrome coronavirus 2) (UniProt P0DTD1); assay: Inhibition of recombinant his tagged SARS CoV-2 main protease expressed in Escherichia coli BL21 using Boc-Abu-Tle-Leu-Gln-AMC37 as fluorogenic substrate at 10 uM pre-incubated for 5 mins followed by substrate addition measured after 60 mins by FRET based assay relative to control
[11] = system: SARS-CoV-2; assay: microbe, parasite or virus in culture; settings: Severe acute respiratory syndrome coronavirus 2, Vero 76

Compound	Activity [1]	Ki [2] [nM]	Activity [3]	IC50 [5] [nM]	Ratio [6] [M⁻¹ s⁻¹]	IC50 [9] [nM]	also measured
O=C(Sc1nc2ccccc2s1)c1cc2ccccc2[nH]1	Non-Toxic	72.6	Non-Toxic	117	–	–	EC50 [4]: 137 nM
COc1ccc2cc([C@H](C)C(=O)Sc3ncccn3)ccc2c1	–	21	–	551	33900	–	–
O=C(Sc1ncccn1)c1cc2ccccc2[nH]1	Non-Toxic	14.1	Non-Toxic	11.4	–	303	IC50 [7]: 60 nM; EC50 [4]: 111 nM; inhibition [8]: > 50%
CCOc1nnc(SC(=O)c2cc3ccccc3[nH]2)s1	–	–	–	–	–	–	inhibition [10]: 37%
O=C(Sc1nnc(C(F)(F)F)s1)c1ccc(C#Cc2ccccc2)o1	–	–	–	–	–	–	inhibition [10]: 14%
O=C(Sc1ncccn1)c1ccc2ccccc2n1	Non-Toxic	–	Non-Toxic	20.6	–	613	IC50 [7]: 253 nM; inhibition [8]: > 50%
CC(C)C[C@H](NC(=O)OCc1ccccc1)C(=O)N[C@H](C=O)CC1CCNC1=O (stereo partly specified)	–	–	–	–	–	78	IC50 [7]: 44.6 nM
Cc1ccnc(SC(=O)c2cc3ccccc3[nH]2)n1	Non-Toxic	33.2	Non-Toxic	87.6	–	1310	IC50 [7]: 1520 nM; EC50 [11]: 185 nM; EC50 [4]: 734 nM; inhibition [8]: > 50%
O=C(Sc1ccc(Cl)cc1Cl)c1cc2ccccc2[nH]1	–	–	–	–	–	–	inhibition [10]: 9%
Cc1nnc(SC(=O)c2cccc3[nH]ccc23)s1	Non-Toxic	–	Non-Toxic	60	–	486	EC50 [4]: 367 nM
O=C(Sc1ncccn1)c1ccc(-c2ccc(Br)cc2)s1	Non-Toxic	–	Non-Toxic	14.4	–	–	–
O=C(Sc1nc2ccccc2s1)c1ccc(-c2ccccc2)s1	–	42	–	125	2100	–	–
CCOc1ccc2cc(C(=O)Sc3nccc(C)n3)[nH]c2c1	–	–	–	–	–	–	inhibition [10]: -8%
Cc1nnc(SC(=O)c2ccc(C#Cc3ccccc3)o2)s1	Non-Toxic	34.4	Non-Toxic	250	5200	378	IC50 [7]: 2760 nM; inhibition [8]: > 50%
Cc1nnc(SC(=O)c2cc3ccccc3n2C)s1	Non-Toxic	295	Non-Toxic	349	–	223	EC50 [11]: 4.58 nM; EC50 [4]: 659 nM
O=C(Sc1nncs1)c1cc2ccccc2[nH]1	Non-Toxic	74.4	Non-Toxic	143	–	535	IC50 [7]: 3210 nM; EC50 [11]: 642 nM; EC50 [4]: 562 nM; inhibition [8]: > 50%
Cc1nnc(SC(=O)c2cc3ccccc3o2)s1	–	35.7	–	316	5190	–	–
Cc1nnc(SC(=O)c2ccc(-c3ccccc3)o2)s1	Non-Toxic	–	Non-Toxic	34.4	–	–	EC50 [4]: 100 nM
O=C(Sc1nc2ccccc2s1)c1ccc(-c2ccc(Br)cc2)o1	–	13	–	255	1490	–	–
O=C(Sc1ncccn1)c1ccc(-c2ccccc2)s1	–	–	–	13.7	–	–	–
Cc1nnc(SC(=O)c2cccc3cc[nH]c23)s1	Non-Toxic	250	Non-Toxic	159	–	196	IC50 [7]: 2150 nM; EC50 [4]: 437 nM; inhibition [8]: > 50%

Compound	Activity [1]	Ki [2] [nM]	Activity [3]	IC50 [5] [nM]	Ratio [6] [M⁻¹ s⁻¹]	IC50 [9] [nM]	also measured
Cc1cc(C)nc(SC(=O)c2ccc(C#Cc3ccccc3)o2)n1	–	–	–	288	–	–	–
Cc1nnc(SC(=O)c2ccc3cc[nH]c3c2)s1	Non-Toxic	186	Non-Toxic	54.7	5850	271	–
Cc1nnc(SC(=O)c2cc3ccccc3[nH]2)n1C(=O)c1cc2ccccc2[nH]1	–	77.3	–	281	12200	–	–
Cc1nnc(SC(=O)c2ccc3[nH]ccc3c2)s1	Non-Toxic	393	Non-Toxic	72.3	3370	945	IC50 [7]: 7350 nM
O=C(Oc1cncc(Cl)c1)c1cccc2[nH]ccc12	Non-Toxic	–	Non-Toxic	–	–	–	EC50 [11]: 9.59 nM; EC50 [4]: 28.5 nM
O=C(Sc1nc2ccccc2s1)c1ccc(-c2ccccc2)o1	–	612	–	166	515	–	–
Cc1cc(C)nc(SC(=O)c2cc3ccccc3[nH]2)n1	–	773	–	2030	1790	–	–
CSc1nnc(SC(=O)c2cc3ccccc3[nH]2)s1	Non-Toxic	43	Non-Toxic	91.4	11800	1130	–
O=C(Sc1nc2ccccc2s1)c1cc2ccccc2s1	–	161	–	190	2000	–	–
CCC(CC)COC(=O)[C@H](C)N[P@](=O)(OC[C@H]1O[C@@](C#N)(c2ccc3c(N)ncnn23)[C@H](O)[C@@H]1O)Oc1ccccc1	Non-Toxic	–	Non-Toxic	–	–	–	EC50 [11]: 2.63 nM; EC50 [4]: 79.6 nM
Cc1nnc(SC(=O)c2ccc3ccccc3c2)s1	Non-Toxic	21.1	Non-Toxic	454	–	526	IC50 [7]: 1650 nM; EC50 [4]: 45 nM; inhibition [8]: > 50%
O=C(Sc1nnc(C(F)(F)F)s1)c1cc2ccccc2[nH]1	–	–	–	–	–	–	inhibition [10]: 26%
O=C(Sc1ccc(Cl)cc1)c1cc2ccccc2[nH]1	–	–	–	–	–	–	inhibition [10]: 4%
Cc1nnc(SC(=O)c2cc3ccccc3[nH]2)s1	–	–	–	624	–	–	–
O=C(Sc1nc2ccccc2s1)c1cc2ccccc2o1	–	–	–	–	–	–	inhibition [10]: 14%
COc1nnc(SC(=O)c2cc3ccccc3[nH]2)s1	Non-Toxic	84.4	Non-Toxic	147	–	503	EC50 [4]: 38.3 nM
O=C(Sc1ncccn1)c1ccc(-c2ccccc2)o1	Non-Toxic	–	Non-Toxic	18.1	–	79	–
Cc1nnc(SC(=O)c2cc3ccccc3[nH]2)o1	–	119	–	1220	3880	–	–
Cc1nnc(SC(=O)c2ccc(-c3ccccc3)[nH]2)s1	–	605	–	235	5070	–	–
O=C(Sc1ncccn1)c1cc2ccccc2s1	–	–	–	15.5	–	–	–
Cc1nnc(SC(=O)c2ccc(Br)o2)s1	–	–	–	481	–	–	–
